Test results from patent US20240383898A1, “PYRIDO RING COMPOUND, PREPARATION METHOD THEREFOR, INTERMEDIATE, COMPOSITION, AND APPLICATION” (YIYOU BIOTECH (SHANGHAI) CO., LTD, priority 2021, published 2024).

Columns and labels:
JAK1 = target: T1, JAK1 (Homo sapiens, UniProt P23458); experiment: In vitro activity test of JAK1 kinase (Caliper EZ Reader conversion assay); type: biochemical; conditions: enzyme activity, 10 concentrations from 1000 nM, 3-fold dilution
T1 construct: purchased Carna 08-114
How it was run: (§1)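 JAK1 or JAK2 pre-incubated with compound (top 1000 nM, 3-fold, 10 points, duplicate) for 10 min at room temperature, then ATP plus substrate added. Substrate conversion read by mobility-shift on Caliper EZ Reader after stop solution. Inhibition normalized to no-enzyme and DMSO controls; IC50 from variable-slope four-parameter fit.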

JAK2 = target: T2, JAK2 (Homo sapiens, UniProt O60674); experiment: In vitro activity test of JAK2 kinase (Caliper EZ Reader conversion assay); type: biochemical; conditions: enzyme activity, 10 concentrations from 1000 nM, 3-fold dilution
T2 construct: purchased Carna 08-045
How it was run: as §1

T1 sequence (P23458 whole entry, species assumed): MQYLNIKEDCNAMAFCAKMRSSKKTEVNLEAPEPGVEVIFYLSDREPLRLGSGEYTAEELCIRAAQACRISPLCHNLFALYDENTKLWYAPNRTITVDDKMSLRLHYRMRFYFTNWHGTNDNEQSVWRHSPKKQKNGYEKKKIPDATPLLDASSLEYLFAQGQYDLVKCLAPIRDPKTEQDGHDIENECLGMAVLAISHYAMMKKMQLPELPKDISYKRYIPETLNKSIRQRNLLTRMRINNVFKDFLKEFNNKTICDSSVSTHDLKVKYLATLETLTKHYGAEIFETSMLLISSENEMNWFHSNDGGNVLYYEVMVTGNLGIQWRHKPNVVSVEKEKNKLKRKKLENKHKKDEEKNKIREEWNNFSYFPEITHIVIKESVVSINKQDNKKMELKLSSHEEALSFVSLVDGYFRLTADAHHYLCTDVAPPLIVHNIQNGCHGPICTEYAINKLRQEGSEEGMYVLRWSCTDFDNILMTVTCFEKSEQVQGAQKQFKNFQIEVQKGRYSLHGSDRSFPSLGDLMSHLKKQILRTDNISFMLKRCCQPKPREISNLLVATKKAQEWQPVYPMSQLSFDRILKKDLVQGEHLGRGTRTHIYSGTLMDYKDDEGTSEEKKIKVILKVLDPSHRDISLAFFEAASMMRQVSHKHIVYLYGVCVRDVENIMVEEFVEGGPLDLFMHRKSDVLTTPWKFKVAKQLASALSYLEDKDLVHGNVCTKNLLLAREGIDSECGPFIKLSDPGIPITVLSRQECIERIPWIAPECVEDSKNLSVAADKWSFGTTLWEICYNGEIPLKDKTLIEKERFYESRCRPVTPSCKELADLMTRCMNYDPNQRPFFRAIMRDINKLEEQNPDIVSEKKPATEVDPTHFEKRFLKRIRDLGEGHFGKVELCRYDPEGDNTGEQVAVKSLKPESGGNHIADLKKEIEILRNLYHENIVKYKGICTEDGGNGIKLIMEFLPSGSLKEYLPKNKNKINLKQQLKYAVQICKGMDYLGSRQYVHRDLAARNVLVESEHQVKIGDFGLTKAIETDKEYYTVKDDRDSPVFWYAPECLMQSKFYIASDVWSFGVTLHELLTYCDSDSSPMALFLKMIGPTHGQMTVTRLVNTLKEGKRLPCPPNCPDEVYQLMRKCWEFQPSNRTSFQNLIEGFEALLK
T2 sequence (O60674 whole entry, species assumed): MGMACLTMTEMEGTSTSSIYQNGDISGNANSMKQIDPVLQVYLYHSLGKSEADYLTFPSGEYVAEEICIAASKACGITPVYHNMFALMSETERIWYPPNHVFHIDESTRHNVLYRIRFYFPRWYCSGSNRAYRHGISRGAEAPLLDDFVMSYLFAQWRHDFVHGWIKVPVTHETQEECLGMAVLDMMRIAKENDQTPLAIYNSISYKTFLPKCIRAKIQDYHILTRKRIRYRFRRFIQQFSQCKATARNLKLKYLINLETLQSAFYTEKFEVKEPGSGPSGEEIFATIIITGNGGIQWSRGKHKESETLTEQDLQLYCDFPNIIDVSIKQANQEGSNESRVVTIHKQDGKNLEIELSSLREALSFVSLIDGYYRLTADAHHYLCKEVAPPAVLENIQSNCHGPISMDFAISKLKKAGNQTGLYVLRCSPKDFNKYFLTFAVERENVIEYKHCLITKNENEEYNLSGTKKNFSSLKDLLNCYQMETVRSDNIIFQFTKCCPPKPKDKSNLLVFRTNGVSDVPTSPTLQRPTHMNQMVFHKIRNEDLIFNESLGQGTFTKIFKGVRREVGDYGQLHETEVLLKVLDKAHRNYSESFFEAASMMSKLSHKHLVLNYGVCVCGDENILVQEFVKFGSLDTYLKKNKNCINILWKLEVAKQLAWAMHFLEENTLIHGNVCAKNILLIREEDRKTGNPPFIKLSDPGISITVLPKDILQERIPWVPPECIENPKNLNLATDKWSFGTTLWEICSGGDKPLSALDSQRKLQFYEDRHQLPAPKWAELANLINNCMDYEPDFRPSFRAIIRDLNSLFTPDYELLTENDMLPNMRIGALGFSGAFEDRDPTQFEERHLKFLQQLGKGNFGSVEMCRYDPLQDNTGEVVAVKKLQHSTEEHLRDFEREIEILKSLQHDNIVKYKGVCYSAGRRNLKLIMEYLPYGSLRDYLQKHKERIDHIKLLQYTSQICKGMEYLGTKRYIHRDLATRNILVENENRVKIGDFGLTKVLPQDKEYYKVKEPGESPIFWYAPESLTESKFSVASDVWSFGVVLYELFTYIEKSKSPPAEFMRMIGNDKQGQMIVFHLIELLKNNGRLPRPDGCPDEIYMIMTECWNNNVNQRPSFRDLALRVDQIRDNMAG

SMILES | IC50 (JAK1) [µM] | IC50 (JAK2) [µM]
C[C@@H](O)c1nc2cnc3[nH]ccc3c2n1[C@H]1CCN(C(F)(F)C(F)(F)C(F)(F)C(F)(F)F)C1 [LXS101, (R)-1-(1-((S)-1-(Perfluoro-butyl)pyrrolidin-3-yl)-1,6-dihydroimidazo[4,5-d]pyrrolo[2,3-b]pyridin-2-yl)ethanol] | < 0.01 | 0.1 to 1
C[C@@H](O)c1nc2cnc3[nH]ccc3c2n1[C@H]1CCN(S(=O)(=O)CCC(F)(F)F)C1 [LXS102, (R)-1-(1-((S)-1-((3,3,3-Trifluoropropyl)sulfonyl)pyrrolidin-3-yl)imidazo[4,5-d]pyrrolo[2,3-b]pyridin-2-yl)ethanol] | < 0.01 | 0.1 to 1
N#CCCCn1cc(-n2cnc3cnc4[nH]ccc4c32)cn1 [LXS103, 4-(4-(imidazo[4,5-d]pyrrolo[2,3-b]pyridin-1(6H)-yl)-1H-pyrazol-1-yl)butanenitrile] | 0.01 to 0.1 | 0.01 to 0.1
Cc1ccc(-c2nc3cnc4[nH]ccc4c3n2-c2cnn(CCCC#N)c2)o1 [LXS104, 4-(4-(2-(5-methylfuran-2-yl)imidazo[4,5-d]pyrrolo[2,3-b]pyridin-1(6H)-yl)-1H-pyrazol-1-yl)butanenitrile] | 0.01 to 0.1 | 0.01 to 0.1
Cc1ccc(-c2nc3cnc4[nH]ccc4c3n2-c2cnn(CCCC#N)c2)s1 [LXS105] | 0.1 to 1 | 0.01 to 0.1
N#CCCn1cc(-n2c(-c3cccs3)nc3cnc4[nH]ccc4c32)cn1 [LXS106, 3-(4-(2-(Thiophen-2-yl)imidazo[4,5-d]pyrrolo[2,3-b]pyridin-1(6H)-yl)-1H-pyrazol-1-yl)propanenitrile] | 0.1 to 1 | 0.01 to 0.1
N#CCCCn1cc(-n2c(C3CCC3)nc3cnc4[nH]ccc4c32)cn1 [LXS107, 4-(4-(2-cyclobutylimidazo[4,5-d]pyrrolo[2,3-b]pyridin-1(6H)-yl)-1H-pyrazol-1-yl)butanenitrile] | 0.1 to 1 | 0.01 to 0.1
N#CCCCn1cc(-n2c(C3CC3)nc3cnc4[nH]ccc4c32)cn1 [LXS108, 4-(4-(2-cyclopropylimidazo[4,5-d]pyrrolo[2,3-b]pyridin-1(6H)-yl)-1H-pyrazol-1-yl)butanenitrile] | 0.1 to 1 | 0.01 to 0.1
N#CCN1CCC(n2c(-c3cccc(O)c3)nc3cnc4[nH]ccc4c32)C1 (stereo not drawn) [LXSS3, 2-(3-(2-(3-Hydroxyphenyl)imidazo[4,5-d]pyrrolo[2,3-b]pyridin-1(6H)-yl)pyrrolidin-1-yl)acetonitrile] | 0.01 to 0.1 | 0.01 to 0.1
